{
  "source": "patent US20230141718A1",
  "about": "“METHODS OF TREATING GLIOBLASTOMA” (CELGENE QUANTICEL RESEARCH, INC., priority 2021, published 2023)",
  "assay_type_in_all_cases": "in vivo, human",
  "key": {"[1]": {"tested_on": "progressive or recurrent astrocytoma or recurrent glioblastoma", "assay": "Antitumor response per RANO and PFS, CC-90010-GBM-001", "description": "The Response Assessment in Neuro-Oncology criteria (RANO) is used to assess response to first-line treatment of glioblastoma. See, Leao, D. J. et al., American Journal of Neuroradiology 2019, 1-11. The RANO criteria divides response into four types of response based on imaging (MRI) and clinical features: (1) complete response (CR); (2) partial response (PR); (3) stable disease (SD); and (4) progression. For this assessment, a measurable disease is defined as bidimensional contrast-enhancing lesions with clearly defined margins, with 2 perpendicular diameters of at least 10 mm, visible on ≥2 axial slices. The nonmeasurable disease is defined as either unidimensional measurable lesions, masses with margins not clearly defined as frequently noted in the surgical margins, or lesions with maximal perpendicular diameters of <10 mm.\n(§1) The study described in this example (CC-90010-GBM-001 study/NCT04047303) enrolled patients with progressive or recurrent astrocytoma or recurrent glioblastoma who have failed radiation and chemotherapy, and who are candidates for surgical tumor resection as part of their salvage regimen.\n(§2) Patients were treated with Compound A at 30 mg daily on Day 1 to Day 4 prior to undergoing indicated tumor resection and to maintain platelet count above the minimum of […] recommended for surgery (Part A, preoperative treatment). Following recovery from surgery and a minimum of 4 weeks from the first dose of Compound A, subjects who were fit to continue were treated with Compound A at 45 mg on a 4 days on/24 days off schedule (180 mg per 28-day cycle). Maintenance treatment continued until disease progression, unacceptable toxicity, or withdrawal of consent."}, "[2]": {"assay": "Plasma pharmacokinetics of Compound A, CC-90010-GBM-001 study", "description": "(§3) The primary objectives of the study in this example were determination of tumor tissue concentration and plasma pharmacokinetics (PK) of Compound A. The secondary and exploratory objectives included safety, antitumor activity, cerebrospinal fluid concentration, and pharmacodynamics (PD).\nas §1, §2\nThe blood PK, blood PD, tumor PK and tumor PD data were available for 20, 12, 20, and 11 patients, respectively."}, "[3]": {"assay": "Brain tumor tissue, plasma and CSF concentration at resection, CC-90010-GBM-001", "description": "as §3, §2\nThe geometric mean peak of Compound A plasma concentration on Day 4 was 1.90 μM, and the median time to peak concentration was 1.75 hours. The median time from the day 4 dose of Compound A to resection was 23 hours (range, 4.6-31.3). […] At the time of resection, the geometric mean concentrations of Compound A in plasma and brain tumor tissue were 1.02 and 0.74 μM, respectively. Geometric mean free Compound A concentration in brain tissue was calculated to be 0.028 μM. Geometric mean Compound A concentration in CSF (cerebrospinal fluid) was 0.14 μM, and the mean CSF:plasma ratio was 0.17. None of the brain tumor tissue samples for PK analyses was confirmed to comprise homogeneous contrast-enhancing or non-enhancing tumor tissue, precluding measurement in these subgroups.\nAt Cycle 1 Day 4, the concentration of Compound A was measured in resected brain tumor from 20 subjects at 6 to 24-hour post dose. At the time of resection (N=19), the mean (f SDev) concentration of Compound A in plasma was 397 f 77.78 ng/mL (geometric mean: 389.23 ng/mL; coefficient of variation: 20.1%). The mean ratio of compound concentration in the resected brain tissue to compound concentration in plasma is 0.84 f 0.25 for 19 of the 20 subjects."}, "CCR1 RNA": {"tested_on": "CCR1 RNA", "assay": "Blood CCR1 RNA pharmacodynamics, CC-90010-GBM-002", "conditions": "for Day 4 blood CCR1 RNA downregulation: 2-4 hours post-dose", "description": "The primary objectives of the study in this example were to establish the safety, maximum tolerated dose (MTD), and recommended phase 2 dose (RP2D) of Compound A. The preliminary efficacy, pharmacokinetics, and pharmacodynamics were also investigated.\nThe study described in this example (CC-90010-GBM-002/NCT04324840) is a phase 1B dose-finding study investigating standard of care of Compound A in combination with TMZ with or without radiotherapy (RT) in subjects with newly diagnosed GBM. Part A of the study is escalating the oral doses of Compound A in combination with adjuvant TMZ to estimate the MTD and/or the RP2D of Compound A as adjuvant therapy and escalating the oral doses of Compound A in combination with concomitant TMZ+radiotherapy (RT) to estimate the MTD and/or the RP2D of Compound A as concomitant therapy. Part B of the study is the safety and efficacy of Compound A administered at or below the MTD determined for the adjuvant therapy (AT) and concomitant therapy (CT).\nThe interim results for adjuvant Compound A+temozolomide are described. For adjuvant therapy, patients received Compound A at 15, 30, or 45 mg daily (4 days on/24 days off)+temozolomide administered per label for 6 cycles (150 mg/m^2 at Cycle 1 then 200 mg/m^2; QD for 5 days), followed by Compound A at 45 mg monotherapy daily (4 days on/24 days off)."}, "[4]": {"tested_on": "CCR1 (C-C chemokine receptor type 1) mRNA", "assay": "Blood CCR1 mRNA pharmacodynamics, CC-90010-GBM-001", "description": "as §3, §2\nBlood HEXIM1 (hexamethylene bis-acetamide-inducible protein 1) mRNA was increased at 72-96 hours following first dose, and the percentage increase correlated with plasma concentration of Compound A at surgery. Tumor HEXIM1 RNA increased in 10 of 11 patients. Additionally, blood HEXIM1 mRNA expression was increased in all subjects at 72-96 hours following the first dose. Percentage HEXIM1 increase was related to plasma Compound A concentration at biopsy."}},
  "note": "“Also recorded” adds a separate entry of the source.",
  "data": [
    {"smiles": "Cn1cc(-c2cc(S(C)(=O)=O)ccc2OCC2CC2)c2ccccc2c1=O", "note": "[Compound A, 4-[2-(cyclopropylmethoxy)-5-methylsulfonylphenyl]-2-methylisoquinolin-1-one]", "values": [
      {"measurement": "PD per RANO criteria", "setting": "[1]; 17 evaluable patients", "value": 59, "unit": "%"},
      {"measurement": "stable disease per RANO criteria", "setting": "[1]; 17 evaluable patients", "value": 41, "unit": "%"},
      {"measurement": "median PFS", "setting": "[1]; IDH wild-type disease, 95% CI 1.4-3.6", "value": 3.0, "unit": "months"},
      {"measurement": "6-month PFS rate", "setting": "[1]; IDH wild-type disease, 95% CI 2.7-40.4", "value": 16.3, "unit": "%"},
      {"measurement": "6-month PFS rate", "setting": "[1]; IDH-mutant disease", "value": 0, "unit": "%"},
      {"measurement": "median PFS", "setting": "[1]; IDH-mutant disease, 95% CI 0.4-1.9", "value": 1.2, "unit": "months"},
      {"measurement": "Six month progression-free survival", "setting": "[1]; all evaluable", "value": 12, "unit": "%"},
      {"measurement": "Median progression-free survival (PFS)", "setting": "[1]; all evaluable, 95% CI 1.4-3.3", "value": 1.9, "unit": "months"},
      {"measurement": "GM AUC from 0 to 24 hours (AUC0-24)", "setting": "[2]; C1D1, 30 mg daily", "value": 5083, "unit": "ng·h/mL"},
      {"measurement": "Median tmax", "setting": "[2]; C1D4", "value": 1.9, "unit": "h"},
      {"measurement": "mean t1/2", "setting": "[2]; C1D4", "value": 46, "unit": "h"},
      {"measurement": "GM AUC0-24", "setting": "[2]; C1D4, 30 mg daily", "value": "11,250 ng h/mL"},
      {"measurement": "geometric mean peak plasma concentration", "setting": "[2]; Day 4", "value": 1.90, "unit": "µM"},
      {"measurement": "median time to peak concentration", "setting": "[2]; Day 4", "value": 1.75, "unit": "h"},
      {"measurement": "geometric mean (GM) Cmax", "setting": "[2]; cycle 1, day 1 (C1D1), 30 mg daily", "value": 392, "unit": "ng/mL"},
      {"measurement": "GM Cmax", "setting": "[2]; cycle 1, day 4 (C1D4), 30 mg daily", "value": 720, "unit": "ng/mL"},
      {"measurement": "geometric mean concentration in brain tumor tissue", "setting": "[3]; at the time of resection", "value": 0.74, "unit": "µM"},
      {"measurement": "geometric mean concentration in plasma", "setting": "[3]; at the time of resection", "value": 1.02, "unit": "µM"},
      {"measurement": "geometric mean concentration in plasma", "setting": "[3]; at the time of resection (N=19)", "value": 389.23, "unit": "ng/mL"},
      {"measurement": "Geometric mean free concentration in brain tissue", "setting": "[3]; calculated", "value": 0.028, "unit": "µM"},
      {"measurement": "Kp", "setting": "[3]; human, brain tumor tissue, 30 mg, as stated in the comparison with other agents, read-out: brain tumor tissue:plasma ratio", "value": 0.14},
      {"measurement": "Geometric mean concentration in CSF (cerebrospinal fluid)", "setting": "[3]; in vivo", "value": 0.14, "unit": "µM"},
      {"measurement": "mean CSF:plasma ratio", "setting": "[3]; in vivo", "value": 0.17},
      {"measurement": "BBB / brain tumor tissue penetration", "setting": "[3]; patients with recurrent high-grade glioma", "value": "found to penetrate the BBB and was detected in brain tumor tissue; also recorded: good tumor tissue penetration; also recorded: high brain penetrance"},
      {"measurement": "Day 4 blood CCR1 RNA downregulation", "setting": "CCR1 RNA; 15-mg group", "value": "downregulated partially"},
      {"measurement": "Day 4 blood CCR1 RNA downregulation", "setting": "CCR1 RNA; 30-mg group", "value": "≥ 50", "unit": "%"},
      {"measurement": "CCR1 downregulation", "setting": "CCR1 RNA; following first and last dose of ≥30 mg, cycle 1, CC-90010-GBM-002 (FIG. 6)", "value": "≥ 50", "unit": "%"},
      {"measurement": "Blood CCR1 mRNA reduction", "setting": "[4]; after Dose 4", "value": "≥ 50", "unit": "%"},
      {"measurement": "Blood CCR1 mRNA, % of baseline", "setting": "[4]; after Dose 4, standard deviation 28.5", "value": 45.8, "unit": "%"},
      {"measurement": "CCR1 downregulation", "setting": "[4]; following first and last dose of ≥30 mg, cycle 1, CC-90010-GBM-001 (FIG. 5)", "value": "≥ 50", "unit": "%"}
    ]}
  ]
}
